From ChEMBL document CHEMBL6083249, “The journey of p38 MAP kinase inhibitors: From bench to bedside in treating inflammatory diseases” (Eur J Med Chem, 2024)

How the values were obtained:
[1] = AUC (0 to t) in Sprague-Dawley rat at 30 mg/kg, po by LC-MS analysis; assay type: ADME, organism-based; settings: in vivo
[2] = Plasma protein binding in Sprague-Dawley rat assessed as unbound fraction at 10 uM incubated for 6 hrs by LC-MS/MS analysis; assay type: ADME, cell-free
[3] = target: 3',5'-cyclic-AMP phosphodiesterase 4C (Homo sapiens, UniProt Q08493); assay: Inhibition of PDE4C (unknown origin)
3',5'-cyclic-AMP phosphodiesterase 4C, sequence (Q08493 whole entry): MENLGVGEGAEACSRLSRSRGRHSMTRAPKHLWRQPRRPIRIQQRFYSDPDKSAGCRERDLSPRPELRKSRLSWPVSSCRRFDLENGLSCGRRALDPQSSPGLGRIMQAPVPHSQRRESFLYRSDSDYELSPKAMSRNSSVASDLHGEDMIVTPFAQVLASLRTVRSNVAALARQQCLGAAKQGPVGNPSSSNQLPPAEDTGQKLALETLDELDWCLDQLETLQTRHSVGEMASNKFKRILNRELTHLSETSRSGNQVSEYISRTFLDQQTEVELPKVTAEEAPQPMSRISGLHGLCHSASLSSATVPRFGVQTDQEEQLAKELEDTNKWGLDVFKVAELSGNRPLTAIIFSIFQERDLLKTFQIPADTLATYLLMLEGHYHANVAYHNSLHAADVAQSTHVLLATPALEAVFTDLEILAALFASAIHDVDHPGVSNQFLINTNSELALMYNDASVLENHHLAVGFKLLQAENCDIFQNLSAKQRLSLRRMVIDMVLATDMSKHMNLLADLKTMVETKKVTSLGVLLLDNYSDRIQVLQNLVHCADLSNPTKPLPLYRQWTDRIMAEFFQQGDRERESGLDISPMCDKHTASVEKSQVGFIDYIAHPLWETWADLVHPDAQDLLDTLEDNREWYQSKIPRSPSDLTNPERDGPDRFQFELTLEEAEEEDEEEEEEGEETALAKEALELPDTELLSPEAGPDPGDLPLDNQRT

[4] = Plasma protein binding in Sprague-Dawley rat assessed as unbound fraction at 1 uM incubated for 6 hrs by LC-MS/MS analysis; assay type: ADME, cell-free
[5] = Half life in Sprague-Dawley rat at 10 mg/kg, po by LC-MS/MS analysis; assay type: ADME, organism-based; settings: in vivo
[6] = AUC (0 to t) in Beagle dog at 40 mg/kg, po by LC-MS/MS analysis; assay type: ADME, organism-based, Canis lupus familiaris; settings: in vivo
[7] = target: CDK7/Cyclin H/MNAT1 (Homo sapiens) (UniProt P51946+P50613+P51948); assay: Inhibition of CDK7/cyclinH/MAT1 (unknown origin) at 10 uM in presence of ATP relative to control; assay type: protein-complex assay
[8] = Plasma protein binding in human assessed as unbound fraction at 30 uM incubated for 6 hrs by LC-MS/MS analysis; assay type: ADME, cell-free
[9] = AUC (0 to infinity) in Sprague-Dawley rat at 50 mg/kg, po by LC-MS/MS analysis; assay type: ADME, organism-based; settings: in vivo
[10] = AUC (0 to t) in Sprague-Dawley rat at 20 mg/kg, po by LC-MS analysis; assay type: ADME, organism-based; settings: in vivo
[11] = AUC (0 to infinity) in Sprague-Dawley rat at 30 mg/kg, po by LC-MS/MS analysis; assay type: ADME, organism-based; settings: in vivo
[12] = AUC (0 to t) in Sprague-Dawley rat at 50 mg/kg, po by LC-MS analysis; assay type: ADME, organism-based; settings: in vivo
[13] = AUC (0 to infinity) in Sprague-Dawley rat at 20 mg/kg, po measured for 24 hrs by LC-MS/MS analysis; assay type: ADME, organism-based; settings: in vivo
[14] = Half life in Sprague-Dawley rat at 50 mg/kg, po by LC-MS/MS analysis; assay type: ADME, organism-based; settings: in vivo
[15] = AUC (0 to infinity) in Sprague-Dawley rat at 20 mg/kg, po by LC-MS/MS analysis; assay type: ADME, organism-based; settings: in vivo
[16] = Cmax in Sprague-Dawley rat at 20 mg/kg, po measured for 24 hrs by LC-MS/MS analysis; assay type: ADME, organism-based; settings: in vivo
[17] = Tmax in Sprague-Dawley rat at 30 mg/kg, po by LC-MS analysis; assay type: ADME, organism-based; settings: in vivo
[18] = species: Homo sapiens; assay: Inhibition of MKK6 (unknown origin) at 10 uM relative to control
[19] = Plasma protein binding in human assessed as unbound fraction at 1 uM incubated for 6 hrs by LC-MS/MS analysis; assay type: ADME, cell-free
[20] = species: Homo sapiens; assay: Inhibition of P70S6K (unknown origin) in presence of 10 uM ATP by Z'-LYTE biochemical assay relative to control
[21] = Tmax in Sprague-Dawley rat at 10 mg/kg, po by LC-MS analysis; assay type: ADME, organism-based; settings: in vivo
[22] = Plasma protein binding in Sprague-Dawley rat assessed as unbound fraction at 30 uM incubated for 6 hrs by LC-MS/MS analysis; assay type: ADME, cell-free
[23] = target: Mitogen-activated protein kinase 14 (Homo sapiens) (UniProt Q16539); assay: Inhibition of p38alpha (unknown origin) at 10 uM in presence of ATP relative to control
Mitogen-activated protein kinase 14 (Homo sapiens), sequence (Q16539 whole entry, canonical isoform): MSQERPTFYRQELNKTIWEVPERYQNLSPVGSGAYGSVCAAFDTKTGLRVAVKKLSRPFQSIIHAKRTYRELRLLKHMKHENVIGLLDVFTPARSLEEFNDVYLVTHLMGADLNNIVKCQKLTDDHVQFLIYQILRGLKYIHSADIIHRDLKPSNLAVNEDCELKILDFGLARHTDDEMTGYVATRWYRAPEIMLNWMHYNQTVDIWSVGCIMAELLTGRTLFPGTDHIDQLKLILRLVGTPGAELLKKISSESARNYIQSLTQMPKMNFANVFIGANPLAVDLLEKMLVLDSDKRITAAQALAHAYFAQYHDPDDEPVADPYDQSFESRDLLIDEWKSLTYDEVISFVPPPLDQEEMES

[24] = target: Casein kinase I isoform alpha (Homo sapiens) (UniProt P48729); assay: Inhibition of CK1 alpha (unknown origin) at 10 uM relative ton control
Casein kinase I isoform alpha (Homo sapiens), sequence (P48729 2-337 limits assumed): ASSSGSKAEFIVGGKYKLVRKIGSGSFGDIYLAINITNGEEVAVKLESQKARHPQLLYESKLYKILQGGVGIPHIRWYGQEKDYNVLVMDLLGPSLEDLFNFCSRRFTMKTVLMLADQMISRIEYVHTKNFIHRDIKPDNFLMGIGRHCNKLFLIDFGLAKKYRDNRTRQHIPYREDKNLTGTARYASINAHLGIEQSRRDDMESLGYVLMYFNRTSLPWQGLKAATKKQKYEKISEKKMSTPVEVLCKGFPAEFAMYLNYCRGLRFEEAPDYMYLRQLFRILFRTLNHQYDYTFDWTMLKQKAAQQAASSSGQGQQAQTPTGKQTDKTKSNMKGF

[25] = Plasma protein binding in cynomolgus monkey assessed as unbound fraction at 30 uM incubated for 6 hrs by LC-MS/MS analysis; assay type: ADME, cell-free, Macaca fascicularis
[26] = Half life in Sprague-Dawley rat at 20 mg/kg, po by LC-MS/MS analysis; assay type: ADME, organism-based; settings: in vivo
[27] = target: 3',5'-cyclic-AMP phosphodiesterase 4B (Homo sapiens, UniProt Q07343); assay: Inhibition of PDE4B1 (unknown origin)
3',5'-cyclic-AMP phosphodiesterase 4B, sequence (Q07343 whole entry): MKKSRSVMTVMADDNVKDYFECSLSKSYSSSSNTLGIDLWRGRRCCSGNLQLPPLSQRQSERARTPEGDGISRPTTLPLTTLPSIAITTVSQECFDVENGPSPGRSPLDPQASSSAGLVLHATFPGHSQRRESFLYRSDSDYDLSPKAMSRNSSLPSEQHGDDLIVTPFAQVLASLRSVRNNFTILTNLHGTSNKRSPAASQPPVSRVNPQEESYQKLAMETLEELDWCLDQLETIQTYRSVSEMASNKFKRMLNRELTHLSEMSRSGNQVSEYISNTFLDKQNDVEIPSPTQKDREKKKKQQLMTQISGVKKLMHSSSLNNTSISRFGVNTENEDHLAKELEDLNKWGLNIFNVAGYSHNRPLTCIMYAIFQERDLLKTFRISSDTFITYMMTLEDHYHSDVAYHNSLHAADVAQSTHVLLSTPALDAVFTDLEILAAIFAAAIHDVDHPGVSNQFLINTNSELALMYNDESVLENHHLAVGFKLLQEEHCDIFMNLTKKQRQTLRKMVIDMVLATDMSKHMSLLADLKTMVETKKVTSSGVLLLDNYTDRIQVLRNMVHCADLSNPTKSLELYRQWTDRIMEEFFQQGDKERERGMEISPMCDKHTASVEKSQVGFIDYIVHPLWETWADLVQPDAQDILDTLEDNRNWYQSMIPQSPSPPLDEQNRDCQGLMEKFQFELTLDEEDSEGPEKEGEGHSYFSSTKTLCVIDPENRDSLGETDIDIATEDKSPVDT

[28] = AUC (0 to infinity) in Sprague-Dawley rat at 10 mg/kg, po by LC-MS/MS analysis; assay type: ADME, organism-based; settings: in vivo
[29] = Cmax in Sprague-Dawley rat at 10 mg/kg, po by LC-MS analysis; assay type: ADME, organism-based; settings: in vivo
[30] = Plasma protein binding in cynomolgus monkey assessed as unbound fraction at 10 uM incubated for 6 hrs by LC-MS/MS analysis; assay type: ADME, cell-free, Macaca fascicularis
[31] = AUC (0 to t) in Sprague-Dawley rat at 10 mg/kg, po by LC-MS analysis; assay type: ADME, organism-based; settings: in vivo
[32] = Tmax in Sprague-Dawley rat at 50 mg/kg, po by LC-MS analysis; assay type: ADME, organism-based; settings: in vivo
[33] = Plasma protein binding in human assessed as unbound fraction at 10 uM incubated for 6 hrs by LC-MS/MS analysis; assay type: ADME, cell-free
[34] = Plasma protein binding in cynomolgus monkey assessed as unbound fraction at 1 uM incubated for 6 hrs by LC-MS/MS analysis; assay type: ADME, cell-free, Macaca fascicularis
[35] = Half life in Sprague-Dawley rat at 30 mg/kg, po by LC-MS/MS analysis; assay type: ADME, organism-based; settings: in vivo
[36] = target: Cyclin-dependent kinase 18 (Homo sapiens) (UniProt Q07002); assay: Inhibition of CDK18 (unknown origin) at 10 uM relative to control
Cyclin-dependent kinase 18 (Homo sapiens), sequence (Q07002 whole entry): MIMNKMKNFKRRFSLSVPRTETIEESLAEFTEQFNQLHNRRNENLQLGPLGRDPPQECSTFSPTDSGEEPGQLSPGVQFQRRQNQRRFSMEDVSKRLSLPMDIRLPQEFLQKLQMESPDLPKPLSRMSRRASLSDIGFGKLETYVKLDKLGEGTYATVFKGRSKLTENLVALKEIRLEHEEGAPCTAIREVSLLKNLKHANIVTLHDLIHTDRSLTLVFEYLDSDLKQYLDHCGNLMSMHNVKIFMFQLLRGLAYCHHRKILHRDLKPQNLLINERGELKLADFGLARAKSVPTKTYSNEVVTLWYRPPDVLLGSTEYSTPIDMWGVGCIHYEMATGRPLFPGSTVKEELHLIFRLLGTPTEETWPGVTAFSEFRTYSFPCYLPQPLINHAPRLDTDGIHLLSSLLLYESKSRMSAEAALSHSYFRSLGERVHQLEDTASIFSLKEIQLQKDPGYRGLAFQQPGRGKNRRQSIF

[37] = Tmax in Sprague-Dawley rat at 20 mg/kg, po by LC-MS analysis; assay type: ADME, organism-based; settings: in vivo
[38] = Cmax in Sprague-Dawley rat at 50 mg/kg, po by LC-MS analysis; assay type: ADME, organism-based; settings: in vivo
[39] = Cmax in Wistar rat at 10 mg/kg, po by LC-MS/MS analysis; assay type: ADME, organism-based; settings: in vivo
[40] = Tmax in Wistar rat at 10 mg/kg, po by LC-MS/MS analysis; assay type: ADME, organism-based; settings: in vivo
[41] = system: THP-1; assay: Anti-inflammatory activity in human THP-1 cells assessed as inhibition of IL-1beta protein expression incubated for 24 hrs by Western blot analysis; assay type: functional, cell-based; settings: THP-1, 24 h
[42] = Half life in Sprague-Dawley rat at 10 mg/kg, po by LC-MS analysis; assay type: ADME, organism-based; settings: in vivo
[43] = Volume of distribution at steady state in Sprague-Dawley rat at 10 mg/kg, iv measured for 24 hrs by LC-MS/MS analysis; assay type: ADME, organism-based; settings: in vivo, read-out: Vdss
[44] = Clearance in Sprague-Dawley rat at 10 mg/kg, iv by HPLC-MS analysis; assay type: ADME, organism-based; settings: in vivo
[45] = AUC in Sprague-Dawley rat at 10 mg/kg, po measured for 24 hrs by LC-MS/MS analysis; assay type: ADME, organism-based; settings: in vivo
[46] = Oral bioavailability in Sprague-Dawley rat at 10 mg/kg by LC-MS analysis; assay type: ADME, organism-based; settings: in vivo
[47] = system: RAW264.7; assay: Anti-inflammatory activity in LPS-induced mouse RAW264.7 cells assessed as inhibition of IL-6 production; assay type: functional, cell-based
[48] = system: THP-1; assay: Antiinflammatory activity against human THP-1 cells assessed as inhibition of LPS-induced TNF-alpha production; assay type: functional, cell-based
[49] = target: cGMP-inhibited 3',5'-cyclic phosphodiesterase 3A (Homo sapiens) (UniProt Q14432); assay: Inhibition of PDE3A (unknown origin) at 10 uM relative to control
cGMP-inhibited 3',5'-cyclic phosphodiesterase 3A (Homo sapiens), sequence (Q14432 whole entry): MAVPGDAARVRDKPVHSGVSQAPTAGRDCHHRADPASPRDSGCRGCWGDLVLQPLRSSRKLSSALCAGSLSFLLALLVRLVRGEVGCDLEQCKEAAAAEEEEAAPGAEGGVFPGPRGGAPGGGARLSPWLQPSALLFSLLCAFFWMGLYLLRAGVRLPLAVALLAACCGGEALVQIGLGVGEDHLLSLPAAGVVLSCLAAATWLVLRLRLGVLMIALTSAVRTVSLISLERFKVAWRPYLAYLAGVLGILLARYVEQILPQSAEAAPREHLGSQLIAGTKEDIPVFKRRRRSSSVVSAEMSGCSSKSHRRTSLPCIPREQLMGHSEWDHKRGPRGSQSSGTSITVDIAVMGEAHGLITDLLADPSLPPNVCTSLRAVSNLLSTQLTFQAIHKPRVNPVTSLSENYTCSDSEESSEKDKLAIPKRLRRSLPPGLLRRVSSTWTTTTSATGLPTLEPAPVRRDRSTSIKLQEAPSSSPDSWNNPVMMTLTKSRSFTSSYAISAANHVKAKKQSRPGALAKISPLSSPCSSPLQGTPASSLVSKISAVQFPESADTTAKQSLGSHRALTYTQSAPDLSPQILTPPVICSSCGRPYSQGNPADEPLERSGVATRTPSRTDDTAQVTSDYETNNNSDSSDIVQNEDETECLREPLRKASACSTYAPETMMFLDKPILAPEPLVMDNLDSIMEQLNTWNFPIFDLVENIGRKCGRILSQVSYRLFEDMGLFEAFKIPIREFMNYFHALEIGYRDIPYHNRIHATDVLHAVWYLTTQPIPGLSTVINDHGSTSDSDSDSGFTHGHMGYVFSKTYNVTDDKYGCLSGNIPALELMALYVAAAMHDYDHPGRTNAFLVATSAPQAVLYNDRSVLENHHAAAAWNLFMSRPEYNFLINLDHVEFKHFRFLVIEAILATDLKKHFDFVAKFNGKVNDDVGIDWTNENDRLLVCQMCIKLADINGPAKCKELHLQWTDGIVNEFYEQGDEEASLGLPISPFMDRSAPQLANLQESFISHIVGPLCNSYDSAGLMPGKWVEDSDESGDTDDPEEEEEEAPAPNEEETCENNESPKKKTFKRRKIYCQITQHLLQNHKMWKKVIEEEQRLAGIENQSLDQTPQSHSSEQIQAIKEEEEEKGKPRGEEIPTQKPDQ

[50] = target: cGMP-specific 3',5'-cyclic phosphodiesterase (Homo sapiens) (UniProt O76074); assay: Inhibition of human PDE5 at 10 uM relative to control
[51] = MRT in ICR mouse at 5 mg/kg, iv by LC-MS/MS analysis; assay type: ADME, organism-based; settings: in vivo
[52] = Clearance in ICR mouse at 2 mg/kg, iv; assay type: ADME, organism-based; settings: in vivo
[53] = Cmax in Wistar rat at 3 mg/kg, iv; assay type: ADME, organism-based; settings: in vivo
[54] = Cmax in ICR mouse at 5 mg/kg, iv by LC-MS/MS analysis; assay type: ADME, organism-based; settings: in vivo
[55] = Oral bioavailability in ICR mouse; assay type: ADME, organism-based; settings: in vivo
[56] = Volume of distribution at steady state in ICR mouse at 2 mg/kg, iv; assay type: ADME, organism-based; settings: in vivo, read-out: Vdss
[57] = Oral bioavailability in rat; assay type: ADME, organism-based; settings: in vivo
[58] = Tmax in ICR mouse at 5 mg/kg, iv; assay type: ADME, organism-based; settings: in vivo
[59] = Clearance in Wistar rat at 3 mg/kg, iv; assay type: ADME, organism-based; settings: in vivo
[60] = Volume of distribution at steady state in Wistar rat at 3 mg/kg, iv; assay type: ADME, organism-based; settings: in vivo, read-out: Vdss

CC(=O)Nc1cc(-c2c(-c3ccc(F)cc3)nc([S+](C)[O-])n2C)ccn1 (configuration not stated)
AUCt [1]: 0.42 µM·h
fraction unbound at 6 h, 10 µM [2]: 0.631
IC50 [3]: 6400 nM
fraction unbound at 6 h, 1 µM [4]: 0.863
half-life [5]: 2.7 h
AUCt [6]: 93.4 µM·h
inhibition [7]: 54%
fraction unbound at 6 h, 30 µM [8]: 0.781
AUC [9]: 3.58 µM·h
AUCt [10]: 0.31 µM·h
AUC [11]: 3.05 µM·h
AUCt [12]: 3.4 µM·h
AUC [13]: 2.24 µM·h
half-life [14]: 3.2 h
AUC [15]: 2.24 µM·h
Cmax [16]: 314 nM
Tmax [17]: 2.3 h
inhibition [18]: 62%
fraction unbound at 6 h, 1 µM [19]: 0.9
inhibition [20]: 32%
Tmax [21]: 2.2 h
fraction unbound at 6 h, 30 µM [22]: 0.754
inhibition [23]: 35%
inhibition [24]: 97%
fraction unbound at 6 h, 30 µM [25]: 0.583
half-life [26]: 3.3 h
IC50 [27]: 1900 nM
AUC [28]: 1.04 µM·h
Cmax [29]: 200 nM
fraction unbound at 6 h, 10 µM [30]: 0.611
AUCt [31]: 0.95 µM·h
Tmax [32]: 1.5 h
fraction unbound at 6 h, 10 µM [33]: 0.806
fraction unbound at 6 h, 1 µM [34]: 0.667
half-life [35]: 3.4 h
inhibition [36]: 94%
Tmax [37]: 2.9 h
Cmax [38]: 590 nM

Cn1c(=O)c(Oc2ccc(F)cc2F)cc2cnc(NC(CCO)CCO)nc21 [PAMAPIMOD]
Cmax [39]: 1340 ng/mL
Tmax [40]: 0.5 h
IC50 [41]: 100 nM
half-life [42]: 4.04 h
Vd [43]: 3.56 L/kg
clearance [44]: 21 mL/min/kg
AUC [45]: 3.13 µg/h/mL
bioavailability [46]: 80.1%
EC50 [47]: 50 nM
IC50 [48]: 300 nM

Cn1c([S+](C)[O-])nc(-c2ccc(F)cc2)c1-c1ccnc(N)c1 (configuration not stated)
IC50 [3]: > 10000 nM
inhibition [49]: 30%
inhibition [50]: 30%
IC50 [27]: 3500 nM

CCCNC(=O)c1cn2ncnc(Nc3cc(C(=O)NC4CC4)ccc3C)c2c1C [BMS-582949]
MRT [51]: 3.3 h
clearance [52]: 4.4 mL/min/kg
Cmax [53]: 7000 nM
Cmax [54]: 15300 nM
bioavailability [55]: 90%
Vd [56]: 0.9 L/kg
bioavailability [57]: 60%
Tmax [58]: 1 h
clearance [59]: 5.4 mL/min/kg
Vd [60]: 1.1 L/kg
